Laboratory results as given in ChEMBL document CHEMBL1201862, “PubChem BioAssay data set” (2004).
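Tested at 5 concentrations; 48 h exposure; 96-well plates; endpoints linearly interpolated, else capped at highest concentration. At the GI50, growth is halved.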 Activity calls are given as the source filed them. Cut-off read from the data, not from the text of the source: active = GI50 up to about 1.1 µM and inactive = higher.

Assays:
Assay in all cases: NCI-60 cell line screen, 48 h
BT-549 = test system: BT-549
CCRF-CEM = test system: CCRF-CEM
HCT-116 = test system: HCT-116
HL-60 = test system: HL-60
HOP-62 = test system: HOP-62
IGROV-1 = test system: IGROV-1
K562 = test system: K562
LOX IMVI = test system: LOX IMVI
MCF7 = test system: MCF7
Malme-3M = test system: Malme-3M
OVCAR-8 = test system: OVCAR-8
RXF 393 = test system: RXF 393
SF-268 = test system: SF-268
SK-MEL-28 = test system: SK-MEL-28
SK-MEL-5 = test system: SK-MEL-5
SR = test system: SR
T47D = test system: T47D
UACC-257 = test system: UACC-257
UO-31 = test system: UO-31
SF-539 = test system: SF-539

Structure (SMILES) | GI50 (BT-549) | GI50 (CCRF-CEM) | GI50 (HCT-116) | GI50 (HL-60) | GI50 (HOP-62) | GI50 (IGROV-1) | GI50 (K562) | GI50 (LOX IMVI) | GI50 (MCF7) | GI50 (Malme-3M) | GI50 (OVCAR-8) | GI50 (RXF 393) | GI50 (SF-268) | GI50 (SK-MEL-28) | GI50 (SK-MEL-5) | GI50 (SR) | GI50 (T47D) | GI50 (UACC-257) | GI50 (UO-31) | GI50 (SF-539)
CC1(c2ccccc2)CCN(C2CC2)CO1 (stereo not drawn) | 18.3 µM (inactive) | 32.4 µM (inactive) | 19.9 µM (inactive) | 45.2 µM (inactive) | > 100 µM (inactive) | 19.6 µM (inactive) | 15.3 µM (inactive) | 18 µM (inactive) | 16.2 µM (inactive) | 19.9 µM (inactive) | 68.1 µM (inactive) | 26.9 µM (inactive) | 16.8 µM (inactive) | 19.7 µM (inactive) | > 100 µM (inactive) | 25.5 µM (inactive) | 17.3 µM (inactive) | 22.4 µM (inactive) | 18.5 µM (inactive) | 
Nc1nc(SCc2ccccc2Cl)cc(C(=O)O)n1 | 97.9 µM (inactive) | 32.2 µM (inactive) | 54.5 µM (inactive) | 64.1 µM (inactive) | 63.1 µM (inactive) | > 100 µM (inactive) | 46.5 µM (inactive) | 44.4 µM (inactive) | > 100 µM (inactive) | 39.4 µM (inactive) | 46.9 µM (inactive) | > 100 µM (inactive) | 52.7 µM (inactive) | 87.3 µM (inactive) | 76.9 µM (inactive) | 39 µM (inactive) | > 100 µM (inactive) | > 100 µM (inactive) | 67 µM (inactive) | 
O=S(=O)(c1ccccc1)N1CCCC(c2ccccc2)CC1 (stereo not drawn) | 58.3 µM (inactive) | 33.8 µM (inactive) | 38.3 µM (inactive) | 9.75 µM (inactive) |  | > 100 µM (inactive) | 19.4 µM (inactive) |  | 24 µM (inactive) | 30.8 µM (inactive) | 37.2 µM (inactive) | 41.5 µM (inactive) | 27.8 µM (inactive) | > 100 µM (inactive) | 14.6 µM (inactive) | 16.9 µM (inactive) | 44.1 µM (inactive) | 38.9 µM (inactive) | 55 µM (inactive) | > 100 µM (inactive)
CC(=O)Nc1ccc(/N=C2\C(c3ccccc3)=C(SC3=C(c4ccccc4)/C(=N\c4ccc(NC(C)=O)cc4)c4ccccc43)c3ccccc32)cc1 | 24.8 µM (inactive) | 24.7 µM (inactive) | 34.4 µM (inactive) |  | 29.7 µM (inactive) | 32.1 µM (inactive) | 32.6 µM (inactive) | 28.8 µM (inactive) | 27.4 µM (inactive) | 27.2 µM (inactive) | 29.6 µM (inactive) | 21.6 µM (inactive) | 33.8 µM (inactive) | 32.7 µM (inactive) | 15.8 µM (inactive) | 23.8 µM (inactive) | 12.9 µM (inactive) | 46 µM (inactive) | 24.7 µM (inactive) | < 0.01 µM (active)
COc1cc2c[n+](C)c3c4cc(OC)c(OCc5ccccc5)cc4c(OCc4ccccc4)cc3c2cc1OC | 2.21 µM (inactive) | 4.68 µM (inactive) | 3.76 µM (inactive) |  | 13.8 µM (inactive) | 1.69 µM (inactive) | 1.28 µM (inactive) | 5.3 µM (inactive) | 3.93 µM (inactive) | 2.22 µM (inactive) | 6.85 µM (inactive) | 12.1 µM (inactive) | 3.44 µM (inactive) | 5.48 µM (inactive) | 2.08 µM (inactive) | 1.4 µM (inactive) | 5.22 µM (inactive) | 2.9 µM (inactive) | > 100 µM (inactive) | 2.57 µM (inactive)
O=[N+]([O-])c1ccc(Cl)cc1N/N=C/c1ccnc2ccccc12 | > 100 µM (inactive) | > 100 µM (inactive) | 42.9 µM (inactive) | > 100 µM (inactive) | > 100 µM (inactive) | > 100 µM (inactive) | > 100 µM (inactive) |  | > 100 µM (inactive) |  | 46.5 µM (inactive) | 36.9 µM (inactive) | > 100 µM (inactive) | > 100 µM (inactive) | > 100 µM (inactive) | > 100 µM (inactive) | > 100 µM (inactive) | > 100 µM (inactive) | > 100 µM (inactive) | 21.9 µM (inactive)
CCOC(=O)Oc1cc2ccsc2c2c1c1ccccc1n2C(=O)OCC | 59 µM (inactive) | > 100 µM (inactive) | 54.6 µM (inactive) |  | 37.3 µM (inactive) | > 100 µM (inactive) | > 100 µM (inactive) | > 100 µM (inactive) | 59 µM (inactive) | 33.7 µM (inactive) | 87.7 µM (inactive) | 22.2 µM (inactive) | 64 µM (inactive) | > 100 µM (inactive) | 63.7 µM (inactive) | > 100 µM (inactive) | 28.6 µM (inactive) | 91 µM (inactive) | 24.2 µM (inactive) | 36.4 µM (inactive)
COc1ccc2c(c1OC)C(=O)O[C@@H]2[C@H]1c2c(cc3c(c2OC)OCO3)CCN1C [NOSCAPINE] | 45.7 µM (inactive) | 12.9 µM (inactive) | 50.5 µM (inactive) |  | 71.4 µM (inactive) | 62.7 µM (inactive) | 33 µM (inactive) | 37.2 µM (inactive) | 42.3 µM (inactive) | 33.5 µM (inactive) | 63.5 µM (inactive) | > 100 µM (inactive) | 71.8 µM (inactive) | 42.1 µM (inactive) | 48.3 µM (inactive) | 38.8 µM (inactive) | > 100 µM (inactive) | 55.1 µM (inactive) | 69 µM (inactive) | 30.8 µM (inactive)
CCNC1=C(NC(=O)CCl)C(=O)c2ccccc2C1=O | > 10 µM (inactive) | 20 µM (inactive) | 18.4 µM (inactive) | 34.1 µM (inactive) | 16.5 µM (inactive) | > 10 µM (inactive) | 25.5 µM (inactive) |  | 22.4 µM (inactive) | 19.9 µM (inactive) | 20.1 µM (inactive) | 16.7 µM (inactive) | 18.1 µM (inactive) | 17.6 µM (inactive) | 16.7 µM (inactive) | 32.8 µM (inactive) | 22.3 µM (inactive) | > 10 µM (inactive) |  | 21.7 µM (inactive)
CCOC1CC(C)N(C(=O)c2ccccc2)O1 (stereo not drawn) | > 100 µM (inactive) | > 100 µM (inactive) | > 100 µM (inactive) | > 100 µM (inactive) | > 100 µM (inactive) | > 100 µM (inactive) | > 100 µM (inactive) |  | > 100 µM (inactive) | > 10 µM (inactive) | > 100 µM (inactive) | > 100 µM (inactive) | > 100 µM (inactive) | > 100 µM (inactive) | > 100 µM (inactive) | > 100 µM (inactive) | > 100 µM (inactive) |  | > 100 µM (inactive) | > 100 µM (inactive)
O=C(NCCN1CCCCC1)c1ccc(I)cc1 | > 100 µM (inactive) | > 100 µM (inactive) | > 100 µM (inactive) |  | > 100 µM (inactive) | > 100 µM (inactive) | > 100 µM (inactive) | > 100 µM (inactive) | > 100 µM (inactive) | > 100 µM (inactive) | > 100 µM (inactive) | 42.4 µM (inactive) | > 100 µM (inactive) | > 100 µM (inactive) | 33.9 µM (inactive) | > 100 µM (inactive) | > 100 µM (inactive) | > 100 µM (inactive) | > 100 µM (inactive) | > 100 µM (inactive)
COc1cc2c(cc1OCCN1C(=O)c3cccc4cccc(c34)C1=O)N=C[C@@H]1CCCN1C2=O | 9.82 µM (inactive) | 0.236 µM (active) | 7.66 µM (inactive) |  | 21.5 µM (inactive) | 3.11 µM (inactive) | 1.15 µM (inactive) | 6.04 µM (inactive) | 6.59 µM (inactive) | 8.02 µM (inactive) | 8.57 µM (inactive) | 7.8 µM (inactive) | 7.74 µM (inactive) | 8.95 µM (inactive) | 8.61 µM (inactive) | > 100 µM (inactive) | 9.35 µM (inactive) | 9.44 µM (inactive) | 8.87 µM (inactive) | 9.12 µM (inactive)
COc1ccc2cc(C(=O)O)ccc2c1OC | > 100 µM (inactive) | > 100 µM (inactive) | > 100 µM (inactive) | > 100 µM (inactive) | > 100 µM (inactive) | > 100 µM (inactive) | > 100 µM (inactive) |  | > 100 µM (inactive) | > 100 µM (inactive) | > 100 µM (inactive) |  | > 100 µM (inactive) |  | > 100 µM (inactive) | > 100 µM (inactive) | > 100 µM (inactive) | > 100 µM (inactive) | > 100 µM (inactive) | > 100 µM (inactive)
CCOC(=O)/C(C#N)=C/N(CC)/N=C/c1ccccc1 | > 100 µM (inactive) | > 100 µM (inactive) | > 100 µM (inactive) | > 100 µM (inactive) |  | > 100 µM (inactive) | > 100 µM (inactive) |  | > 100 µM (inactive) | > 100 µM (inactive) | 81.3 µM (inactive) | 97.3 µM (inactive) | > 100 µM (inactive) | > 100 µM (inactive) | > 100 µM (inactive) | > 100 µM (inactive) | > 100 µM (inactive) | > 100 µM (inactive) | > 100 µM (inactive) | 54.7 µM (inactive)
CCCCn1c2c(c3ccccc3c1=O)C(=O)c1ccccc1-2 | > 100 µM (inactive) | > 100 µM (inactive) | > 100 µM (inactive) | 4.28 µM (inactive) | 19.9 µM (inactive) | 76.7 µM (inactive) | > 100 µM (inactive) | > 100 µM (inactive) | 15 µM (inactive) | > 100 µM (inactive) | > 100 µM (inactive) |  | 29 µM (inactive) | > 100 µM (inactive) | 5.98 µM (inactive) | 1.82 µM (inactive) | 16.2 µM (inactive) | > 100 µM (inactive) | 2.79 µM (inactive) | 49.1 µM (inactive)
